Columns and labels:
in vitro = details: rat, liver microsomes
in vivo = details: rat, brain/plasma, po, 1600 mg/kg

## CC(C)(C)CCNC(=O)CN1CCN(C(=O)C2CCCCC2)CC1
In vitro
  half-life: 21 min

## O=C(CCN1C[C@@H]2C[C@H]1CN2)NC1CCCCC1
In vitro
  half-life: 45 min

## O=C(CN1CCN2CCC[C@@H]2C1)NC1CCCCC1
In vitro
  half-life: 8.2 min

## CCN1CCN(CC(=O)N(C)C2CCCC2)CC1C (racemic)
In vitro
  half-life: 21 min

## O=C(CN1CCNCC1)NC1CCCCC1 [ESAPRAZOLE]
In vivo
  Kp at 2 h: 0.25
In vitro
  half-life: > 60 min

## O=C(CCN1CCN(C(=O)C2CC2)CC1)NC1CCCCC1
In vitro
  half-life: > 60 min

## O=C(CN1CCN2CCC[C@H]2C1)NC1CCCCC1
In vitro
  half-life: 4.2 min

— ChEMBL document CHEMBL2390872, “Synthesis and biological evaluation of Esaprazole analogues showing σ1 binding and neuroprotective properties in vitro” (Bioorg Med Chem, 2013)
